Here are results for 30 molecules from patent US7625889B2, “Substituted bis aryl and heteroaryl compounds as selective 5HT2A antagonists” (Aventis Pharmaceuticals Inc., priority 2005, dated 2009).

The target in one assay is T1, 5HT2A receptor site (Mus musculus, UniProt P35363).
T1 construct: from tissue; host or cells: live male mice (whole animal)
Description: Head Twitch Assay (5-MeODMT induced head twitch). The assay is classed as in vivo. Particulars: for ED50: mouse, sc, dose blocking 5-MeODMT (30 mg/kg i.p.) head twitch in 50% of male mice; for % effect @ 3 mg/kg: 3 mg/kg sc. Here is the method: This Example 177 illustrates the study of efficacy of the compounds of this invention at the 5HT2A receptor site in animal models.
5-MeODMT (5-Methoxy-N,N-dimethyltryptamine) Inhibition: Groups of male mice are administered test compounds at selected doses. At an appropriate interval thereafter, 5-MeODMT (dissolved in 0.5% ascorbic acid) is administered at a dose of 30 mg/kg i.p. Immediately after administration of 5-MeODMT, and continuing for the following 6 min, the number of head twitches for each animal is counted. […] The ED50 is calculated as the dose necessary to block head twitch in 50% of the test animals. All experiments are performed with at least 10 animals per condition.

The next assay deals with T2, human 5HT2A receptor (Homo sapiens, UniProt P28223).
T2 construct: expressed in transfected cells
T2 sequence (P28223 whole entry): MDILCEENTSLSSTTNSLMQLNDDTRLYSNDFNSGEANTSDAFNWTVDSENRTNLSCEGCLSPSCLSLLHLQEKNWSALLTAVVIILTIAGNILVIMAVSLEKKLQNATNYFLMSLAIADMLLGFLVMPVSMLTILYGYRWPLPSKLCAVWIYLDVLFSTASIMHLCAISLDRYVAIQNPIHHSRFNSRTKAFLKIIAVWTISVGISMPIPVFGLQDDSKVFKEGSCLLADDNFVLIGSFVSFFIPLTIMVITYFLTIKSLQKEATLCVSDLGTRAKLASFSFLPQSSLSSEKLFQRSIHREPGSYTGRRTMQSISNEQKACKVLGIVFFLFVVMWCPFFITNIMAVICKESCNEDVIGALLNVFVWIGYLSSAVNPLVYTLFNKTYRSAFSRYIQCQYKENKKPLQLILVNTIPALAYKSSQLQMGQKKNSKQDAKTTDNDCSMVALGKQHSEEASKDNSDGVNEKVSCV
Description: Receptor Binding Assay, 5HT2A ([3H]N-methyl spiperone). The settings on record: BHK cells expressing human 5HT2A receptor, 2.5 nM [3H]N-methyl spiperone, 37° C. The method, then: Cell Culture: BHK cells stably expressing the human 5HT2A receptor were maintained in Dulbecco's Modified Eagle's Medium supplemented with […] Geneticin, 1% Sodium Pyruvate, 1% Pen-Strep and 10% Fetal Calf Serum, and treated with 5 mM sodium butyrate for 24 h to increase receptor expression before harvesting. Cells were harvested by mechanical scraping, washed with Phosphate Buffered Saline, and stored at −80° C. in 10% DMSO in 1 mg/mil aliquots until used. Protein determination was made according to Lowry.
Receptor Binding Assays: The 5HT2A and D2L assays were conducted at 37° C. in a Tris buffer containing salts (50 mM Tris Buffer, pH 7.7; 120 mM NaCl; 5 mM KCl; 2 mM CaCl2; 1 mM MgCl2). Cell membranes (previously prepared and frozen) were rapidly thawed. Membranes were diluted to an appropriate concentration (to produce 100 μg protein/assay point for 5HT2A, and 58 μg protein/assay point for D2L) in Tris buffer and homogenized. Assays were conducted on 96-well plates, using 2.5 and 1 nM [^3H]N-methyl spiperone as radioligand for 5HT2A and D2L assays, respectively. Plates were incubated at 37° C. in a shaking water bath for 30 and 60 min, for 5HT2A and D2L, respectively. Nonspecific binding was defined using 100 μM methylsergide and eticlopride, for 5HT2A and D2L, respectively.
Assays were terminated by rapid filtration through Millipore MAFB or MAFC (5HT2C) filter plates (presoaked in 50 mM Tris HCl, pH 7.7, with 0.1% Brij) using a Millipore Cell Harvester. The filter plates were then washed with ice-cold 50 mM Tris buffer, pH 7.7, and allowed to dry overnight. 50 μl of Microscint scintillation cocktail were added and the plates were counted in a Packard Topcount scintillation counter.
IC50 and Ki calculations were performed using nonlinear regression one-site competition analysis (GraphPad, Prism), with top and bottom limits held constant at 0% and 100% inhibition, respectively. The percent inhibition at each drug concentration was the average of duplicate determinations. Except where indicated, each determination was performed 2 to 5 times.

T1 sequence (P35363 whole entry): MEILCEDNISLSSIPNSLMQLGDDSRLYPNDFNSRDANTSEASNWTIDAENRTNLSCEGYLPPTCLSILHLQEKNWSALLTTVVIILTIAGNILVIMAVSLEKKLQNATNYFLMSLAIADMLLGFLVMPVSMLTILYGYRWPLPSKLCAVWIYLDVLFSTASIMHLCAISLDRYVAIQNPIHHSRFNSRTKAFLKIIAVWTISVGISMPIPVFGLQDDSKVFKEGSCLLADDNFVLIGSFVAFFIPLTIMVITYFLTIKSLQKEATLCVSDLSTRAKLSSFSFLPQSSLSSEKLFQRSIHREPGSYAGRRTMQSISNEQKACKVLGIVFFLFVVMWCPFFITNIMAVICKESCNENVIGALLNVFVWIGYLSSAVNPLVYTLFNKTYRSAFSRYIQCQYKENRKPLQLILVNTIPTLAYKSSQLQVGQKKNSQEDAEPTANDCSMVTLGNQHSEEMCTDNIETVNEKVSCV

What is called ED50 is the midpoint of the dose-response relation. By Ki is commonly meant a dissociation constant, usually derived from enzyme kinetics or from competition with a known ligand. Read a high Ki as a looser hold on the target. Consider `CN(C)CCN(Cc1ccccc1)Cc1cccc(-c2ccc3[nH]c(=O)oc3c2)c1.Cl` [Example 3], for which, at 5HT2A receptor site (1 mg/kg sc, head twitch, male mice), the “% effect @ 1 mg/kg” value turned out to be 100%. This molecule had an ED50 on 5HT2A receptor site of less than 1 mg/kg. In addition, on human 5HT2A receptor, the Ki was found to be 0.9 nM.

For the molecule `O=C(c1ccc(F)cc1)N(CCN1CCCC1)Cc1cc(-c2ccc3[nH]ccc3c2)ccc1F` [Example 20, 4-Fluoro-N-[2-fluoro-5-(1H-indol-5-yl)-benzyl]-N-(2-pyrrolidin-1-yl-ethyl)-benzamide], it took a dose of 0.27 mg/kg to reach the 50% effect level on 5HT2A receptor site (ED50). This molecule gave a Ki on human 5HT2A receptor of 0.32 nM.

Turning to `O=C(c1ccc(F)cc1)N(CCN1CCCC1)Cc1cc(-c2ccc3[nH]c(=O)oc3c2)ccc1F` [Example 21], at 5HT2A receptor site (head twitch, male mice), the “% effect @ 3 mg/kg” value came out at 60%. The ED50 on 5HT2A receptor site is less than 3 mg/kg. The same molecule displayed a Ki at human 5HT2A receptor of 0.26 nM.

At 5HT2A receptor site, `Cc1cc2cc(-c3ccc(F)c(CN(CCN(C)C)C(=O)c4ccc(F)cc4)c3)ccc2[nH]1` [Example 23] displayed an ED50 of 0.16 mg/kg. The same molecule displayed a Ki on human 5HT2A receptor of 0.37 nM.

In turn, `CN(C)CCN(Cc1cc(-c2ccc3[nH]ccc3c2)ccc1F)C(=O)c1ccc(F)cc1` [Example 26] came in with an ED50 on 5HT2A receptor site of 0.82 mg/kg. The affinity at human 5HT2A receptor, expressed as Ki, was 0.68 nM.

At 5HT2A receptor site, `CN1CCC(N(Cc2cccc(-c3ccc4[nH]ccc4c3)c2)C(=O)c2ccc(F)cc2)CC1` [Example 27] showed an ED50 of 0.59 mg/kg. This molecule also gave a Ki on human 5HT2A receptor of 0.7 nM.

At 5HT2A receptor site, `CN1CCC(N(Cc2cc(-c3ccc4[nH]ccc4c3)ccc2F)C(=O)c2ccc(F)cc2)CC1` [Example 34] registered a 50% effective dose (ED50) of 1.09 mg/kg. Further, the Ki at human 5HT2A receptor came out at 1.25 nM.

On 5HT2A receptor site, `Fc1ccc([C@H]2CNCCN2Cc2cc(-c3ccc4[nH]ncc4c3)ccc2F)cc1` [Example 42, {4-Fluoro-3-[2S-(4-fluoro-phenyl)-piperazin-1-ylmethyl]-phenyl}-1H-indazole] returned an ED50 of 1.73 mg/kg. The same molecule returned a Ki on human 5HT2A receptor of 0.61 nM.

As for `CC(=O)O.Fc1ccc(-c2ccc3[nH]ncc3c2)cc1CN1CCNC[C@@H]1c1cccs1` [Example 44], on 5HT2A receptor site, the ED50 was found to be 0.54 mg/kg.

Regarding `Fc1ccc(-c2ccc3[nH]ncc3c2)cc1CN1CCNCC1c1cccs1` (centres unmarked) [Example 47], the “% effect @ 3 mg/kg” value on 5HT2A receptor site (head twitch, male mice) worked out at 50%. In addition, the 50% effective dose (ED50) on 5HT2A receptor site is roughly 3 mg/kg. Also, at human 5HT2A receptor, the Ki worked out at 1.24 nM.

On 5HT2A receptor site, `CC(=O)O.CN1CCN(Cc2cncc(-c3ccc4[nH]ccc4c3)c2)[C@@H](c2ccc(F)cc2)C1` [Example 91, 5-{5-[2S-(4-Fluoro-phenyl)-4-methyl-piperazin-1-ylmethyl]-pyridin-3-yl}-1H-indole acetate] yielded an ED50 of 0.41 mg/kg. On human 5HT2A receptor, this molecule returned a Ki of 0.6 nM.

Consider `CN1CCN(Cc2cc(-c3ccc4[nH]ccc4c3)ccc2F)[C@@H](c2ccc(F)cc2)C1` [Example 92, 5-{4-Fluoro-3-[2S-(4-fluoro-phenyl)-4-methyl-piperazin-1-ylmethyl]-phenyl}-1H-indole], for which the ED50 on 5HT2A receptor site worked out at 0.53 mg/kg.

Consider `CN1CCN(Cc2cc(-c3ccc4[nH]ccc4c3)co2)[C@@H](c2ccc(F)cc2)C1.O=C(O)C(F)(F)F` [Example 94, 5-{5-[2S-(4-Fluoro-phenyl)-4-methyl-piperazin-1-ylmethyl]-furan-3-yl}-1H-indole; compound with trifluoro-acetate], for which the “% effect @ 3 mg/kg” value on 5HT2A receptor site (head twitch, male mice) is recorded as 50%. The same molecule had an ED50 at 5HT2A receptor site of roughly 3 mg/kg.

On to `CC(=O)O.CN1CCN(Cc2cc(-c3ccc4[nH]c(=O)oc4c3)co2)[C@@H](c2ccc(F)cc2)C1` [Example 95, 6-{5-[2S-(4-Fluorophenyl)-4-methylpiperazine-1-ylmethyl]-furan-3-yl}-3H-benzoxazol-2-one], for which the ED50 on 5HT2A receptor site came to 0.5 mg/kg. Moreover, the Ki at human 5HT2A receptor is 1.9 nM.

With `CC(=O)O.CN1CCN(Cc2cncc(-c3ccc4[nH]c(=O)oc4c3)c2)[C@@H](c2ccc(F)cc2)C1` [Example 98, 6-{5-[2S-(4-Fluoro-phenyl)-4-methyl-piperazin-1-ylmethyl]-pyridin-3-yl}-3H-benzooxazol-2-one acetate], at 5HT2A receptor site, the ED50 came out at 0.49 mg/kg. The molecule also displayed a Ki at human 5HT2A receptor of 1.2 nM.

Molecule `CN(C)CCN(Cc1cc(-c2ccc3[nH]c(=O)oc3c2)ccc1F)C(=O)c1ccc(F)cc1` [Example 104, N-(2-Dimethylamino-ethyl)-4-fluoro-N-[2-fluoro-5-(2-oxo-2,3-dihydro-benzooxazol-6-yl)-benzyl]-benzamide] registered an ED50 on 5HT2A receptor site of 6.36 mg/kg. This molecule yielded a Ki on human 5HT2A receptor of 0.31 nM.

Turning to `Fc1ccc([C@H]2CNCCN2Cc2cc(-c3ccc4[nH]ccc4c3)co2)cc1` [Example 115, 5-{5-[2S-(4-Fluoro-phenyl)-piperazin-1-ylmethyl]-furan-3-yl}-1H-indole], at human 5HT2A receptor, the Ki is 2.88 nM.

On human 5HT2A receptor, `Fc1ccc([C@H]2CNCCN2Cc2cc(-c3ccc4[nH]ncc4c3)co2)cc1` [Example 116, 5-{5-[2S-(4-Fluoro-phenyl)-piperazin-1-ylmethyl]furan-3-yl}-1H-indazole] showed a Ki of 1.79 nM.

On human 5HT2A receptor, `O=c1[nH]c2ccc(-c3coc(CN4CCNC[C@@H]4c4ccc(F)cc4)c3)cc2o1` [Example 117, 6-{5-[2S-(4-Fluoro-phenyl)-piperazin-1-ylmethyl]-furan-3-yl}-3H-benzooxazol-2-one acetate] gave a Ki of 4.79 nM.

Consider `CN1CCC(N(Cc2ccc(F)cc2)Cc2cc(-c3ccc4[nH]c(=O)oc4c3)co2)CC1` [Example 118, 6-(5-{[(4-Fluoro-benzyl)-(1-methyl-piperidin-4-yl)-amino]-methyl}-furan-3-yl)-3H-benzooxazol-2-one], for which the Ki on human 5HT2A receptor was 1.1 nM.

Take `CN1CCC(N(Cc2ccc(F)cc2)Cc2cc(-c3ccc4[nH]ncc4c3)co2)CC1` [Example 119, (4-Fluoro-benzyl)-[4-(1H-indazol-5-yl)-furan-2-ylmethyl]-(1-methyl-piperidin-4-yl)-amine]: on human 5HT2A receptor, the affinity corresponds to a Ki of 0.78 nM. This Ki and that of the molecule before are within 1.5-fold of each other.

As to `CN1CCN(Cc2cccc(-c3ccc4[nH]ccc4c3)c2)CC1` [Example 120, 5-[3-(4-Methyl-piperazin-1-ylmethyl)-phenyl]-1H-indole], on human 5HT2A receptor, affinity was put at a Ki of 65 nM.

With `CN1CCCN(Cc2cccc(-c3ccc4[nH]ccc4c3)c2)CC1` [Example 121, 5-[3-(4-Methyl-[1,4]diazepan-1-ylmethyl)-phenyl]-1H-indole], at human 5HT2A receptor, the Ki amounted to 82 nM. The Ki values of the last two molecules are within 1.5-fold of each other.

On to `O=C(c1ccc(F)cc1)N(CCN1CCCC1)Cc1cc(F)cc(-c2ccc3[nH]ccc3c2)c1` [Example 133, 4-Fluoro-N-[3-fluoro-5-(1H-indol-5-yl)-benzyl]-N-(2-pyrrolidin-1-yl-ethyl)-benzamide], for which the ED50 at 5HT2A receptor site worked out at 0.92 mg/kg.

On human 5HT2A receptor, `CN(C)CCN(Cc1ccc(F)cc1)Cc1cc(-c2ccc3[nH]cc(C#N)c3c2)ccc1F` [Example 140, 5-(3-{[(2-Dimethylamino-ethyl)-(4-fluoro-benzyl)-amino]-methyl}-4-fluoro-phenyl)-1H-indole-3-carbonitrile trifluoro-acetate] had a Ki of 22.6 nM.

For the molecule `CC(=O)O.CN1CCN(Cc2cc(-c3ccc4[nH]ncc4c3)ccc2F)[C@@H](c2cccs2)C1` [Example 159, 5-[4-Fluoro-3-(4-methyl-2R-thiophen-2-yl-piperazin-1-ylmethyl)-phenyl]-1H-indazole acetate], the 50% effect level on 5HT2A receptor site (ED50) was put at a dose of 0.04 mg/kg.

In turn, `CN1CCN(Cc2cc(-c3ccc4[nH]ncc4c3)co2)[C@@H](c2ccc(F)cc2)C1` [Example 161, 5-{5-[2S-(4-Fluoro-phenyl)-4-methyl-piperazin-1-ylmethyl]-furan-3-yl}-1H-indazole] had a median effective dose (ED50) at 5HT2A receptor site of 0.16 mg/kg.

With `CN1CCN(C(=O)c2cc(-c3ccc4[nH]ccc4c3)ccc2F)[C@@H](c2ccc(F)cc2)C1` [Example 171, [2-Fluoro-5-(1H-indol-5-yl)-phenyl]-[2S-(4-fluoro-phenyl)-4-methyl-piperazin-1-yl]-methanone], affinity on human 5HT2A receptor was put at a Ki of 85 nM. This lies in the double-digit nanomolar range.

In turn, `Fc1ccc([C@H]2CNCCN2Cc2cc(-c3ccc4[nH]ccc4c3)ccc2F)cc1` [Example 174, 5-{4-Fluoro-3-[2S-(4-fluoro-phenyl)-piperazin-1-ylmethyl]-phenyl}-1H-indole acetate] registered a Ki on human 5HT2A receptor of 0.9 nM.

With `CN1CCN(Cc2cc(-c3ccc4[nH]cc(C#N)c4c3)ccc2F)[C@@H](c2ccc(F)cc2)C1` [Example 175, 5-{4-Fluoro-3-[2S-(4-fluoro-phenyl)-4-methyl-piperazin-1-ylmethyl]-phenyl}-1H-indole-3-carbonitrile], the Ki on human 5HT2A receptor is 3.2 nM.
